Patent publication US12448369B2 (Edgewise Therapeutics, Inc., priority 2023, dated 2025)

test system: Rabbit Psoas myofibrils (skeletal myosin ATPase); assay: Myofibril ATPase assay, rabbit psoas (skeletal) myofibrils; type: biochemical; conditions: Y75 value (no ‡ mark); rabbit psoas myofibrils
Outline: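 Values derive from concentration–response fits of NADH consumption rates at 340 nm, normalized to vehicle-only wells, as Y75 or Y125. Myofibril ATP turnover was linked to NADH via PK/LDH in Ca/EGTA-buffered PIPES, pH 7.0, and read over 75 min.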

Point of comparison: Cc1nc(C#N)cnc1[C@@H](C)NC(=O)Cc1c(C)c2c(F)c(F)ccc2[nH]c1=O [compound 1139], “Skeletal EC25” value 30 nM. Against it:
- Cc1c(CC(=O)N[C@H](C)c2ccc(C#N)nn2)c(=O)[nH]c2ccc(F)c(F)c12 [compound 1133] — within 1.5-fold, 40 nM
- C[C@@H](NC(=O)C1(c2cc3c(F)c(F)ccc3[nH]c2=O)CC1)c1ncc(C#N)cn1 (single isomer, unassigned) [compound 2549] — 250-fold higher, 7560 nM
- Cc1nnccc1C(C)NC(=O)Cc1cc2cc(F)c(F)cc2[nH]c1=O (stereo not drawn) [compound 2073] — 3300-fold higher, 100000 nM
- Cc1c(F)ccc2[nH]c(=O)c(CC(=O)N[C@H](C)c3ncc(F)cc3F)c(C#N)c12 [compound 1147] — 34-fold higher, 1010 nM
- Cc1nnccc1[C@@H](C)NC(=O)Cc1c(C)c2cc(F)ccc2[nH]c1=O [compound 1090] — 3300-fold higher, 100000 nM
- C[C@@H](NC(=O)C1(c2cc3cc(F)ccc3[nH]c2=O)CC1)c1nccc(C#N)n1 (single isomer, unassigned) [compound 2507] — 650-fold higher, 19510 nM
- Cc1c(CC(=O)N[C@@H](C)c2cnc(C#N)cn2)c(=O)[nH]c2ccc(F)cc12 [compound 1109] — 1.7-fold higher, 50 nM
- CCc1c(CC(=O)N[C@@H](C)c2ccc(F)cc2F)c(=O)[nH]c2ccccc12 [compound 126] — the same, 30 nM
- Cc1c(C(F)(F)C(=O)N[C@H](C)c2ccc(F)cc2F)c(=O)[nH]c2ccc(F)cc12 [compound 4815] — 35-fold higher, 1040 nM
- N#Cc1cc(F)c2c(c1)OC[C@H]2NC(=O)C1(c2cc3c(F)c(F)ccc3[nH]c2=O)CC1 (single isomer, unassigned) [compound 4821] — 700-fold higher, 20880 nM
- Cc1c(CC(=O)N[C@H](C)c2ccc(C#N)cc2F)c(=O)[nH]c2ccc(F)c(F)c12 [compound 65] — 1.5-fold lower, 20 nM
- Cc1c(CC(=O)N[C@H](C)c2ccc(C#N)cc2F)c(=O)[nH]c2ccc(F)c(C3CC3)c12 [compound 69] — 3-fold lower, 10 nM
- Cc1c(CC(=O)N[C@@H](C)c2ccc(F)cc2F)c(=O)[nH]c2ccccc12 [compound 135] — the same, 30 nM

same assay, conditions: rabbit psoas myofibrils; Y75 value

Point of comparison: Cc1c(CC(=O)N[C@@H](CO)c2ncc(C#N)cc2F)c(=O)[nH]c2ccnc(C#N)c12 (single isomer, unassigned) [compound 246], “Skeletal EC25” value 30 nM. Against it:
- COc1ccccc1[C@@H](C)NC(=O)Cc1c(C)c2c(C)nccc2[nH]c1=O (single isomer, unassigned) [compound 318] — 920-fold higher, 27680 nM
- Cc1nccc2[nH]c(=O)c(CC(=O)N[C@H](CO)c3ccc(C#N)cc3F)c(C)c12 (single isomer, unassigned) [compound 238] — 96-fold higher, 2870 nM
- Cc1c(CC(=O)N[C@H](CO)c2ncccc2F)c(=O)[nH]c2ccnc(C#N)c12 (single isomer, unassigned) [compound 235] — 3300-fold higher, 100000 nM
- Cc1c([C@H](C)C(=O)N[C@@H](C)c2ccc(C#N)cc2F)c(=O)[nH]c2ccnc(C#N)c12 (single isomer, unassigned) [compound 174] — 2.7-fold higher, 80 nM

target: T1, Porcine ventricle myofibrils (ventricular myosin ATPase) (Sus scrofa, UniProt P79293); assay: Myofibril ATPase assay, porcine ventricle myofibrils; type: biochemical, porcine (Yucatan minipigs); conditions: Y75 value (no ‡ mark); porcine ventricle myofibrils
T1 construct: Myofibrils from porcine cardiac muscle was isolated from the left ventricle of Yucatan minipigs; tissue Exemplar Genetics; host or cells: left ventricle of Yucatan minipigs, myofibrils prepared in house
T1 sequence (P79293 whole entry): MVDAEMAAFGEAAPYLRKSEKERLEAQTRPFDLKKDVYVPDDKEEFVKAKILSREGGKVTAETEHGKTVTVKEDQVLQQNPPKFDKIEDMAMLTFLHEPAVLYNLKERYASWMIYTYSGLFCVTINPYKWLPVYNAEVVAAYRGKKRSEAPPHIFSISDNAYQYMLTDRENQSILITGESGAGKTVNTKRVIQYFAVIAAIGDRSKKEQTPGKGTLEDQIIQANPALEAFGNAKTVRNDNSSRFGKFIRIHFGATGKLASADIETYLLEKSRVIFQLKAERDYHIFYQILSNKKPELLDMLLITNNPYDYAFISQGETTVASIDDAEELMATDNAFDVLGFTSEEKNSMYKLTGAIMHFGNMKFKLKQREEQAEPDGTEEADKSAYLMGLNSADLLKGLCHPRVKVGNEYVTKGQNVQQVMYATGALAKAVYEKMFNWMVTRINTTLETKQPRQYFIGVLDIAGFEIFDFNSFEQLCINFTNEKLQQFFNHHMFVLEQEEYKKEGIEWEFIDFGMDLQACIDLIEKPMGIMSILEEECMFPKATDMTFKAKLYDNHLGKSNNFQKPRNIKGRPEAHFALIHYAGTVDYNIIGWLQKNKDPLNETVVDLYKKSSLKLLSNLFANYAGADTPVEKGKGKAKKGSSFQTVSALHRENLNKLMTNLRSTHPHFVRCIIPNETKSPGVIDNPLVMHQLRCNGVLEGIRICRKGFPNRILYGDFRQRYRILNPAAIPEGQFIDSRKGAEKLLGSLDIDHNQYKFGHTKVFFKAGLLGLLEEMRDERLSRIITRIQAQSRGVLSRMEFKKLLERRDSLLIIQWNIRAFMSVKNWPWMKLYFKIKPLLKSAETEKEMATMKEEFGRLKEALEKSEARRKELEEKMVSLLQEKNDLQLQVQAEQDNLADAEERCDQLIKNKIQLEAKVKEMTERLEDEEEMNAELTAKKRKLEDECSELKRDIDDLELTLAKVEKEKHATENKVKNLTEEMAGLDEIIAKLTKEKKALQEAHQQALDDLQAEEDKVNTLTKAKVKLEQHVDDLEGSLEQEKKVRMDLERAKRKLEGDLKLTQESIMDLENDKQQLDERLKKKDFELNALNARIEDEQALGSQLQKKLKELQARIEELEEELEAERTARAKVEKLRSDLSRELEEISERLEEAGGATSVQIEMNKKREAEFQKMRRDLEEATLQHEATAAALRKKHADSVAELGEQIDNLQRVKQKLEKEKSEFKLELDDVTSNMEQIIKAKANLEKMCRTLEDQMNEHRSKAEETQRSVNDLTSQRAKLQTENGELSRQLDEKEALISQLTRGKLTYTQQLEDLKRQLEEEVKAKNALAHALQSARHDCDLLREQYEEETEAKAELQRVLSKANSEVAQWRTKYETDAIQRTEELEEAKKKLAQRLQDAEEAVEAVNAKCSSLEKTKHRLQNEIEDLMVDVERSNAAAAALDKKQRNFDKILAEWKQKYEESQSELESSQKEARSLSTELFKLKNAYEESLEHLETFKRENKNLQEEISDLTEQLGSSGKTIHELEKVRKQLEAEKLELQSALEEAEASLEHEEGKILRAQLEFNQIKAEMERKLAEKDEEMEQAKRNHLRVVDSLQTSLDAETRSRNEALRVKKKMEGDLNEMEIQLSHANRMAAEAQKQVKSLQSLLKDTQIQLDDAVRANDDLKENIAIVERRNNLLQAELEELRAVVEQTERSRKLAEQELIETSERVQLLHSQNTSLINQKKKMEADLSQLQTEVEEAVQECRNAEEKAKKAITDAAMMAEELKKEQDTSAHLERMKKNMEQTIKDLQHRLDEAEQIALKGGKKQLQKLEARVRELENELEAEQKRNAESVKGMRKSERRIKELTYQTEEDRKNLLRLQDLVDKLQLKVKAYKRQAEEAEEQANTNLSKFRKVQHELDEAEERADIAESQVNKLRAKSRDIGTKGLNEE
Outline: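 Test compounds acted on myofibrils isolated from the left ventricle of Yucatan minipigs. ADP formation was coupled via pyruvate kinase/lactate dehydrogenase to NADH oxidation, monitored kinetically at 340 nm over 75 min. Rates relative to vehicle were fitted with a 4-parameter logistic model, reported as Y75 (25% inhibition) or Y125 (activation) concentrations.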

Point of comparison: Cc1nnccc1[C@@H](C)NC(=O)Cc1c(C)c2cc(F)ccc2[nH]c1=O [compound 1090], “Ventricular EC25” value 100000 nM. Against it:
- Cc1nc(C#N)cnc1[C@@H](C)NC(=O)Cc1c(C)c2c(F)c(F)ccc2[nH]c1=O [compound 1139] — 710-fold lower, 140 nM
- Cc1c(CC(=O)N[C@H](C)c2ccc(C#N)nn2)c(=O)[nH]c2ccc(F)c(F)c12 [compound 1133] — 710-fold lower, 140 nM
- C[C@@H](NC(=O)C1(c2cc3c(F)c(F)ccc3[nH]c2=O)CC1)c1ncc(C#N)cn1 (single isomer, unassigned) [compound 2549] — the same, 100000 nM
- Cc1nnccc1C(C)NC(=O)Cc1cc2cc(F)c(F)cc2[nH]c1=O (stereo not drawn) [compound 2073] — the same, 100000 nM
- Cc1c(F)ccc2[nH]c(=O)c(CC(=O)N[C@H](C)c3ncc(F)cc3F)c(C#N)c12 [compound 1147] — 110-fold lower, 940 nM
- C[C@@H](NC(=O)C1(c2cc3cc(F)ccc3[nH]c2=O)CC1)c1nccc(C#N)n1 (single isomer, unassigned) [compound 2507] — the same, 100000 nM
- Cc1c(CC(=O)N[C@@H](C)c2cnc(C#N)cn2)c(=O)[nH]c2ccc(F)cc12 [compound 1109] — 280-fold lower, 360 nM
- CCc1c(CC(=O)N[C@@H](C)c2ccc(F)cc2F)c(=O)[nH]c2ccccc12 [compound 126] — 200-fold lower, 490 nM
- Cc1c(C(F)(F)C(=O)N[C@H](C)c2ccc(F)cc2F)c(=O)[nH]c2ccc(F)cc12 [compound 4815] — the same, 100000 nM
- N#Cc1cc(F)c2c(c1)OC[C@H]2NC(=O)C1(c2cc3c(F)c(F)ccc3[nH]c2=O)CC1 (single isomer, unassigned) [compound 4821] — the same, 100000 nM
- Cc1c(CC(=O)N[C@H](C)c2ccc(C#N)cc2F)c(=O)[nH]c2ccc(F)c(F)c12 [compound 65] — 450-fold lower, 220 nM
- Cc1c(CC(=O)N[C@H](C)c2ccc(C#N)cc2F)c(=O)[nH]c2ccc(F)c(C3CC3)c12 [compound 69] — 910-fold lower, 110 nM
- Cc1c(CC(=O)N[C@@H](C)c2ccc(F)cc2F)c(=O)[nH]c2ccccc12 [compound 135] — 250-fold lower, 400 nM

same assay, conditions: porcine ventricle myofibrils; Y75 value

Point of comparison: COc1ccccc1[C@@H](C)NC(=O)Cc1c(C)c2c(C)nccc2[nH]c1=O (single isomer, unassigned) [compound 318], “Ventricular EC25” value 100000 nM. Against it:
- Cc1c(CC(=O)N[C@@H](CO)c2ncc(C#N)cc2F)c(=O)[nH]c2ccnc(C#N)c12 (single isomer, unassigned) [compound 246] — 670-fold lower, 150 nM
- Cc1nccc2[nH]c(=O)c(CC(=O)N[C@H](CO)c3ccc(C#N)cc3F)c(C)c12 (single isomer, unassigned) [compound 238] — 8.7-fold lower, 11530 nM
- Cc1c(CC(=O)N[C@H](CO)c2ncccc2F)c(=O)[nH]c2ccnc(C#N)c12 (single isomer, unassigned) [compound 235] — the same, 100000 nM
- Cc1c([C@H](C)C(=O)N[C@@H](C)c2ccc(C#N)cc2F)c(=O)[nH]c2ccnc(C#N)c12 (single isomer, unassigned) [compound 174] — 180-fold lower, 550 nM

test system: Porcine atria myofibrils (atrial myosin ATPase); assay: Myofibril ATPase assay, porcine atria myofibrils; type: biochemical; conditions: Y75 value (no ‡ mark); porcine atria myofibrils
Outline: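 Atrial myofibril ATPase measured by NADH-coupled absorbance at 340 nm; vehicle-normalized slopes fitted to give Y75 or Y125 values.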

Point of comparison: Cc1c(CC(=O)N[C@@H](C)c2cnc(C#N)cn2)c(=O)[nH]c2ccc(F)cc12 [compound 1109], “Atrial EC25” value 160 nM. Against it:
- Cc1nc(C#N)cnc1[C@@H](C)NC(=O)Cc1c(C)c2c(F)c(F)ccc2[nH]c1=O [compound 1139] — within 1.5-fold, 140 nM
- Cc1c(CC(=O)N[C@H](C)c2ccc(C#N)nn2)c(=O)[nH]c2ccc(F)c(F)c12 [compound 1133] — 1.8-fold lower, 90 nM
- C[C@@H](NC(=O)C1(c2cc3c(F)c(F)ccc3[nH]c2=O)CC1)c1ncc(C#N)cn1 (single isomer, unassigned) [compound 2549] — 6.1-fold higher, 970 nM
- Cc1nnccc1C(C)NC(=O)Cc1cc2cc(F)c(F)cc2[nH]c1=O (stereo not drawn) [compound 2073] — 620-fold higher, 100000 nM
- Cc1c(F)ccc2[nH]c(=O)c(CC(=O)N[C@H](C)c3ncc(F)cc3F)c(C#N)c12 [compound 1147] — 18-fold higher, 2840 nM
- Cc1nnccc1[C@@H](C)NC(=O)Cc1c(C)c2cc(F)ccc2[nH]c1=O [compound 1090] — 36-fold higher, 5790 nM
- C[C@@H](NC(=O)C1(c2cc3cc(F)ccc3[nH]c2=O)CC1)c1nccc(C#N)n1 (single isomer, unassigned) [compound 2507] — 26-fold higher, 4100 nM
- CCc1c(CC(=O)N[C@@H](C)c2ccc(F)cc2F)c(=O)[nH]c2ccccc12 [compound 126] — 2.7-fold lower, 60 nM
- Cc1c(C(F)(F)C(=O)N[C@H](C)c2ccc(F)cc2F)c(=O)[nH]c2ccc(F)cc12 [compound 4815] — 6.6-fold higher, 1050 nM
- N#Cc1cc(F)c2c(c1)OC[C@H]2NC(=O)C1(c2cc3c(F)c(F)ccc3[nH]c2=O)CC1 (single isomer, unassigned) [compound 4821] — 2.8-fold higher, 440 nM
- Cc1c(CC(=O)N[C@H](C)c2ccc(C#N)cc2F)c(=O)[nH]c2ccc(F)c(F)c12 [compound 65] — within 1.5-fold, 230 nM
- Cc1c(CC(=O)N[C@H](C)c2ccc(C#N)cc2F)c(=O)[nH]c2ccc(F)c(C3CC3)c12 [compound 69] — 5.3-fold lower, 30 nM
- Cc1c(CC(=O)N[C@@H](C)c2ccc(F)cc2F)c(=O)[nH]c2ccccc12 [compound 135] — 1.6-fold lower, 100 nM

same assay, conditions: porcine atria myofibrils; Y75 value (75% activity relative to no compound)

Point of comparison: Cc1c(CC(=O)N[C@@H](CO)c2ncc(C#N)cc2F)c(=O)[nH]c2ccnc(C#N)c12 (single isomer, unassigned) [compound 246], “Atrial EC25” value 130 nM. Against it:
- COc1ccccc1[C@@H](C)NC(=O)Cc1c(C)c2c(C)nccc2[nH]c1=O (single isomer, unassigned) [compound 318] — 770-fold higher, 100000 nM
- Cc1nccc2[nH]c(=O)c(CC(=O)N[C@H](CO)c3ccc(C#N)cc3F)c(C)c12 (single isomer, unassigned) [compound 238] — 66-fold higher, 8520 nM
- Cc1c(CC(=O)N[C@H](CO)c2ncccc2F)c(=O)[nH]c2ccnc(C#N)c12 (single isomer, unassigned) [compound 235] — 770-fold higher, 100000 nM
- Cc1c([C@H](C)C(=O)N[C@@H](C)c2ccc(C#N)cc2F)c(=O)[nH]c2ccnc(C#N)c12 (single isomer, unassigned) [compound 174] — 1.6-fold lower, 80 nM
